# Like-named read-outs stand apart in the source and are kept apart here.
# Legend:
# KMS.12.BM cells = experiment: KMS.12.BM Cell Viability Assay (Example B1); type: cell-based, human; conditions: Homo sapiens, 72 h, 3 days, Cell Titer-GLO, read-out: KMS cellular IC50
# Procedure, shortened: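 KMS.12.BM human myeloma cells, 5000 cells/well in RPMI with 10% FBS, exposed to a compound concentration range for 3 days. Viable cells measured by ATP-based Cell Titer-GLO luminescence after 10 min at room temperature.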
# C-myc in KMS.12.BM cells = experiment: KMS.12.BM C-Myc ELISA Assay (Example C1); type: cell-based; conditions: Homo sapiens, 2 h
# Method: KMS.12.BM C-Myc ELISA Assay
# KMS.12.BM cell line (human myeloma) was purchased from JCRB (Osaka, Japan) and maintained in RPMI with 10% FBS culture medium. To measure the C-myc inhibitory activity of the compounds, the KMS.12.BM cells are plated in the RPMI culture medium at 75000 cells/well/per 200 μL into a 96-well flat bottom polystyrene tissue culture plate (Corning through VWR, NJ), in the presence or absence of a concentration range of test compounds. After 2 h, cells are pelleted and lysed with Cell Extraction Buffer (BioSource, Carlsbad, Calif.) in the presence of protease inhibitors (Life Technologies, Grand Island, N.Y. and Sigma, St Louis, Mo.). Clarified lyses are tested in a C-myc commercial ELISA (Life Technologies, Grand Island, N.Y.).
SMILES,IC50 (KMS.12.BM cells) [µM],IC50 (C-myc in KMS.12.BM cells) [µM],IC50 (KMS.12.BM cells; KMS-12-BM) [µM]
"Cc1noc(C)c1-c1ccc2nc(NC(C)CO)n3c2c1OCC3c1ccccc1 (single isomer, unassigned) [Example 30, 2-{[7-(3,5-Dimethylisoxazol-4-yl)-4-phenyl-4,5-dihydroimidazo[1,5,4-de][1,4]benzoxazin-2-yl]amino}propan-1-ol]",< 1,< 1,
"Cc1noc(C)c1-c1ccc2nc(C3CCNC3)n3c2c1OC[C@@H]3c1ccccn1 (single isomer, unassigned) [Example 106A]",,< 1,
"CCNC(=O)c1ncccc1C1COc2c(-c3c(C)noc3C)ccc3[nH]c(=O)n1c23 (single isomer, unassigned) [Example 133, 3-[7-(3,5-dimethylisoxazol-4-yl)-2-oxo-1,2,4,5-tetrahydroimidazo[1,5,4-de][1,4]benzoxazin-4-yl]-N-ethylpyridine-2-carboxamide]",< 1,< 1,
"Cc1noc(C)c1-c1ccc2[nH]c(=O)n3c2c1OCC3c1cccnc1C(=O)NC1CC1 (single isomer, unassigned) [Example 134, N-Cyclopropyl-3-[7-(3,5-dimethylisoxazol-4-yl)-2-oxo-1,2,4,5-tetrahydroimidazo[1,5,4-de][1,4]benzoxazin-4-yl]pyridine-2-carboxamide]",< 1,< 1,
"Cc1noc(C)c1-c1cc(C(C)O)c2[nH]c(=O)n3c2c1OC[C@@H]3c1ccccn1 (single isomer, unassigned) [Example 144A]",< 1,< 1,
"Cc1noc(C)c1-c1ccc2c3c1OCC(c1ccccc1)n3c(=O)n2C (stereo not shown) [Example 2, 7-(3,5-Dimethylisoxazol-4-yl)-1-methyl-4-phenyl-4,5-dihydroimidazo[1,5,4-de][1,4]benzoxazin-2(1H)-one]",< 1,< 1,
"Cc1noc(C)c1-c1ccc2[nH]c(=O)n3c2c1OC(C)C3c1ccccc1 (stereo not shown) [Example 3, 7-(3,5-Dimethylisoxazol-4-yl)-5-methyl-4-phenyl-4,5-dihydroimidazo[1,5,4-de][1,4]benzoxazin-2(1H)-one]",< 1,< 1,
"Cc1noc(C)c1-c1ccc2[nH]c(=O)n3c2c1OCC3c1ccc(C#N)cc1 (stereo not shown) [Example 4, 4-[7-(3,5-Dimethylisoxazol-4-yl)-2-oxo-1,2,4,5-tetrahydroimidazo[1,5,4-de][1,4]benzoxazin-4-yl]benzonitrile]",< 1,< 1,
"Cc1noc(C)c1-c1ccc2[nH]c(=O)n3c2c1OCC3c1cccnc1 (stereo not shown) [Example 5, 7-(3,5-Dimethylisoxazol-4-yl)-4-pyridin-3-yl-4,5-dihydroimidazo[1,5,4-de][1,4]benzoxazin-2(1H)-one]",< 1,< 1,
"COc1ccccc1C1COc2c(-c3c(C)noc3C)ccc3[nH]c(=O)n1c23 (stereo not shown) [Example 7, 7-(3,5-Dimethylisoxazol-4-yl)-4-(2-methoxyphenyl)-4,5-dihydroimidazo[1,5,4-de][1,4]benzoxazin-2(1H)-one]",< 1,< 1,
"Cc1noc(C)c1-c1ccc2[nH]c(=O)n3c2c1OCC3c1ccc(F)cc1F (stereo not shown) [Example 8, 7-(3,5-Dimethylisoxazol-4-yl)-4-(2,4-difluorophenyl)-4,5-dihydroimidazo[1,5,4-de][1,4]benzoxazin-2(1H)-one]",< 1,< 1,
"Cc1noc(C)c1-c1ccc2nc(C)n3c2c1OCC3c1ccccc1 (stereo not shown) [Example 9, 7-(3,5-Dimethylisoxazol-4-yl)-2-methyl-4-phenyl-4,5-dihydroimidazo[1,5,4-de][1,4]benzoxazine]",< 1,< 1,
"Cc1noc(C)c1-c1ccc2c3c1OCC(c1ccccc1)n3c(=O)n2CCN1CCOCC1 (stereo not shown) [Example 10, 7-(3,5-Dimethylisoxazol-4-yl)-1-(2-morpholin-4-ylethyl)-4-phenyl-4,5-dihydroimidazo[1,5,4-de][1,4]benzoxazin-2(1H)-one]",,< 1,< 1
"Cc1noc(C)c1-c1ccc2[nH]c(=O)n3c2c1OCC3c1nccs1 (stereo not shown) [Example 21, 7-(3,5-Dimethylisoxazol-4-yl)-4-(1,3-thiazol-2-yl)-4,5-dihydroimidazo[1,5,4-de][1,4]benzoxazin-2(1H)-one]",< 1,< 1,
"CCS(=O)(=O)N1CCCN(c2nc3ccc(-c4c(C)noc4C)c4c3n2[C@@H](c2ccccn2)CO4)CC1 [Example 248, (4S)-7-(3,5-dimethylisoxazol-4-yl)-2-[4-(ethylsulfonyl)-1,4-diazepan-1-yl]-4-pyridin-2-yl-4,5-dihydroimidazo[1,5,4-de][1,4]benzoxazine]",< 1,,
"CNC(=O)[C@@H]1CCN(c2nc3ccc(-c4c(C)noc4C)c4c3n2[C@@H](c2ccccn2)CO4)C1 [Example 249, (3R)-1-[(4S)-7-(3,5-dimethylisoxazol-4-yl)-4-pyridin-2-yl-4,5-dihydroimidazo[1,5,4-de][1,4]benzoxazin-2-yl]-N-methylpyrrolidine-3-carboxamide]",< 1,,
"CCNC(=O)[C@@H]1CCN(c2nc3ccc(-c4c(C)noc4C)c4c3n2[C@@H](c2ccccn2)CO4)C1 [Example 250, (3R)-1-[(4S)-7-(3,5-dimethylisoxazol-4-yl)-4-pyridin-2-yl-4,5-dihydroimidazo[1,5,4-de][1,4]benzoxazin-2-yl]-N-ethylpyrrolidine-3-carboxamide]",< 1,,
"Cc1noc(C)c1-c1ccc2nc(N3CC[C@@H](C(=O)NC4CC4)C3)n3c2c1OC[C@@H]3c1ccccn1 [Example 251, (3R)-N-cyclopropyl-1-[(4S)-7-(3,5-dimethylisoxazol-4-yl)-4-pyridin-2-yl-4,5-dihydroimidazo[1,5,4-de][1,4]benzoxazin-2-yl]pyrrolidine-3-carboxamide]",< 1,,
"Cc1noc(C)c1-c1cc(CNC(C)C)c2[nH]c(=O)n3c2c1OCC3c1ccccn1 (stereo not shown) [Example 253, 7-(3,5-Dimethylisoxazol-4-yl)-9-[(isopropylamino)methyl]-4-pyridin-2-yl-4,5-dihydroimidazo[1,5,4-de][1,4]benzoxazin-2(1H)-one]",1 to 10,,
"Cc1noc(C)c1-c1cc(CO)c2[nH]c(=O)n3c2c1OCC3c1ccccn1 (stereo not shown) [Example 254, 7-(3,5-Dimethylisoxazol-4-yl)-9-(hydroxymethyl)-4-pyridin-2-yl-4,5-dihydroimidazo[1,5,4-de][1,4]benzoxazin-2(1H)-one]",< 1,,
"Cc1noc(C)c1-c1ccc2[nH]c(=S)n3c2c1OCC3c1ccccn1 (stereo not shown) [Example 255, 7-(3,5-Dimethylisoxazol-4-yl)-4-pyridin-2-yl-4,5-dihydroimidazo[1,5,4-de][1,4]benzoxazine-2(1H)-thione]",< 1,,
"Cc1noc(C)c1-c1cc(-c2cn[nH]c2)c2[nH]c(=O)n3c2c1OCC3c1ccccn1 (stereo not shown) [Example 256, 7-(3,5-dimethylisoxazol-4-yl)-9-(1H-pyrazol-4-yl)-4-pyridin-2-yl-4,5-dihydroimidazo[1,5,4-de][1,4]benzoxazin-2(1H)-one]",< 1,,
"Cc1noc(C)c1-c1cc(-c2cn[nH]c2C)c2[nH]c(=O)n3c2c1OCC3c1ccccn1 (stereo not shown) [Example 257, 7-(3,5-dimethylisoxazol-4-yl)-9-(3-methyl-1H-pyrazol-4-yl)-4-pyridin-2-yl-4,5-dihydroimidazo[1,5,4-de][1,4]benzoxazin-2(1H)-one]",< 1,,
"Cc1noc(C)c1-c1cc(-c2ccc(O)nc2)c2[nH]c(=O)n3c2c1OC[C@@H]3c1ccccn1 [Example 259, (4S)-7-(3,5-dimethylisoxazol-4-yl)-9-(6-hydroxypyridin-3-yl)-4-pyridin-2-yl-4,5-dihydroimidazo[1,5,4-de][1,4]benzoxazin-2(1H)-one]",,,1 to 10
"Cc1noc(C)c1-c1cc(-c2ccnc(O)c2)c2[nH]c(=O)n3c2c1OC[C@@H]3c1ccccn1 [Example 260, (4S)-7-(3,5-dimethylisoxazol-4-yl)-9-(2-hydroxypyridin-4-yl)-4-pyridin-2-yl-4,5-dihydroimidazo[1,5,4-de][1,4]benzoxazin-2(1H)-one]",1 to 10,,
"Cc1noc(C)c1-c1cc(CNc2ccccc2)c2[nH]c(=O)n3c2c1OCC3c1ccccn1 (stereo not shown) [Example 262, 9-(anilinomethyl)-7-(3,5-dimethylisoxazol-4-yl)-4-pyridin-2-yl-4,5-dihydroimidazo[1,5,4-de][1,4]benzoxazin-2(1H)-one]",< 1,,
"COc1ccc(CNCc2cc(-c3c(C)noc3C)c3c4c2[nH]c(=O)n4C(c2ccccn2)CO3)cc1 (stereo not shown) [Example 263, 7-(3,5-dimethylisoxazol-4-yl)-9-{[(4-methoxybenzyl)amino]methyl}-4-pyridin-2-yl-4,5-dihydroimidazo[1,5,4-de][1,4]benzoxazin-2(1H)-one]",< 1,,
"Cc1noc(C)c1-c1cc(C(O)C(C)C)c2[nH]c(=O)n3c2c1OCC3c1ccccn1 (stereo not shown) [Example 264, 7-(3,5-dimethylisoxazol-4-yl)-9-(1-hydroxy-2-methylpropyl)-4-pyridin-2-yl-4,5-dihydroimidazo[1,5,4-de][1,4]benzoxazin-2(1H)-one]",< 1,,
"Cc1noc(C)c1-c1cc(F)c2[nH]c(=O)n3c2c1OCC3c1ccccn1 (stereo not shown) [Example 265B, 7-(3,5-dimethylisoxazol-4-yl)-9-fluoro-4-pyridin-2-yl-4,5-dihydroimidazo[1,5,4-de][1,4]benzoxazin-2(1H)-one]",,,< 1
"Cc1noc(C)c1-c1cc(C#N)c2[nH]c(=O)n3c2c1OCC3c1ccccn1 (stereo not shown) [Example 269A, 7-(3,5-dimethylisoxazol-4-yl)-2-oxo-4-pyridin-2-yl-1,2,4,5-tetrahydroimidazo[1,5,4-de][1,4]benzoxazine-9-carbonitrile]",,,< 1

# Reference: patent US10464947B2 (Incyte Corporation, priority 2013, dated 2019)
